Molecules are shown by their SMILES.

This data set concerns the target Cytochrome P450 3A4 (Homo sapiens, UniProt P08684). Kind of data set: Inhibition of human CYP3A4 assessed as biotransformation of 7-benzyloxyquinoline. The format is ADME.

Sequence of Cytochrome P450 3A4 (P08684 whole entry): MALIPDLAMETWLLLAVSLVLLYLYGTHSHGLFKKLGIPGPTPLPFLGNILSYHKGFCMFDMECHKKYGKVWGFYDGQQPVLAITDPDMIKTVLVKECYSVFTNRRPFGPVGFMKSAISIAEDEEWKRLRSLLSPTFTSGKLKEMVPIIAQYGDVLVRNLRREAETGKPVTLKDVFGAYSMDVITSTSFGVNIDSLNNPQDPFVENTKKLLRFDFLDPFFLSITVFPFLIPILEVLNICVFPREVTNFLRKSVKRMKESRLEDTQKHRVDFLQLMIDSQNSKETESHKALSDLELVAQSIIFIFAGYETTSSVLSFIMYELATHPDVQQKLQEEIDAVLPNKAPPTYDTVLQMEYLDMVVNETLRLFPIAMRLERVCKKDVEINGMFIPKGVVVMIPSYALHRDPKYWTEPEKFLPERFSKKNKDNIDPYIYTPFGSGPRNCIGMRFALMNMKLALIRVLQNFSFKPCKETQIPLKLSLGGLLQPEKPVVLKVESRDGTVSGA

For the compound `CC(=O)O[C@H]1[C@H]2c3cc4c(cc3CN3CCC(=C[C@@H]1O)[C@H]23)OCO4`, the Ki (read-out: Ki) amounted to 7600 nM.
On the same count and under the same terms, the value for `CC(=O)O[C@H]1[C@H]2c3cc4c(cc3CN3CCC(=C[C@@H]1OC(C)=O)[C@H]23)OCO4` was 11000 nM; that for `CC(C)(C)[Si](C)(C)O[C@H]1C=C2CCN3Cc4cc5c(cc4[C@H]([C@@H]1O)[C@@H]23)OCO5` was 260 nM.
As for `CC(=O)O[C@H]1[C@H]2c3cc4c(cc3CN3CCC(=C[C@@H]1O[Si](C)(C)C(C)(C)C)[C@H]23)OCO4`, the Ki is, setting by setting: (read-out: Ki) 210 nM; (read-out: pKi (converted)) 158 nM.
Take `O[C@H]1[C@H]2c3cc4c(cc3CN3CCC(=C[C@@H]1O)[C@H]23)OCO4` [LYCORINE]: the Ki entry was “Not Active”.
In the case of `O=C1N[C@@H]2C(=C[C@H](O)[C@@H](O)[C@H]2O)c2cc3c(c(O)c21)OCO3` [NARCICLASINE], for the setting “read-out: Ki”, the Ki was 630 nM.
On to `O=C1N[C@H]2[C@H](O)[C@H](O)[C@@H](O)[C@H](O)[C@@H]2c2cc3c(c(O)c21)OCO3` [PANCRATISTATIN], for which the Ki entry is “Not Active”.
